Experimental data published in patent publication US20080045504A1, “Benzonitrile Derivatives to Treat Musculoskeletal Frailty” (PFIZER PRODUCTS INC., priority 2004, published 2008).

Key:
[1] = biological target: T1, recombinant human androgen receptor (hAR) (Homo sapiens, UniProt P10275); assay: Human androgen receptor binding analysis (3H-DHT competitive binding)
T1 construct: made in house; host or cells: baculovirus/Sf9 insect cells (crude extract)
T1 sequence (P10275 1-920): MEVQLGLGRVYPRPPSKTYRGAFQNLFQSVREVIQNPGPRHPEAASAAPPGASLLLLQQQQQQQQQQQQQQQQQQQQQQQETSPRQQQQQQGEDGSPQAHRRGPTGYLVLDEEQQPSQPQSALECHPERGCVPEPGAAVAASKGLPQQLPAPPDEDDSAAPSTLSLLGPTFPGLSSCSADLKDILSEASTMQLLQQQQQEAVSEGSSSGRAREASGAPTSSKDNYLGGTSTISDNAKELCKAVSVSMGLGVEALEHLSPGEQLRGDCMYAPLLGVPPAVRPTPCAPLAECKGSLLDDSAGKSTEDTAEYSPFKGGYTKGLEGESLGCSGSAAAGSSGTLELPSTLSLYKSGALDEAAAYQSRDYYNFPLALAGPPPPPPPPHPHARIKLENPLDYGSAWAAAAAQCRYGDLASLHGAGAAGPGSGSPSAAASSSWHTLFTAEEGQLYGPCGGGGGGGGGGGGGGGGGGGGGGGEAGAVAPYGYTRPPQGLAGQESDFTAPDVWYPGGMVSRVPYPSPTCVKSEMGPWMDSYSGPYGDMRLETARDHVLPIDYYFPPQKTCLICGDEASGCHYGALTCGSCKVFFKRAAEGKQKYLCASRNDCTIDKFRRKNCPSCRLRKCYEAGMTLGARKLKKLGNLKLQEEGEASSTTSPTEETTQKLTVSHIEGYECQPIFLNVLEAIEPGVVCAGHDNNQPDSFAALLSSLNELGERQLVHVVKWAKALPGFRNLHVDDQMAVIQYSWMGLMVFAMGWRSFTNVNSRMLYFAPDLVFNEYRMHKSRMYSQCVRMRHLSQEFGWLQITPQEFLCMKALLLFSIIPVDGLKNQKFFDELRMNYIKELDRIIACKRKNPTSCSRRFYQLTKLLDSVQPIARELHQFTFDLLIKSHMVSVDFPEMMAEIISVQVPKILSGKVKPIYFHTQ
Experimental: The following is a brief description of the assay that determines the affinity of a compound for the recombinant human androgen receptor (hAR). Competitive binding analysis is performed on baculovirus/Sf9 generated hAR extracts in the presence or absence of differing concentrations of drug and a fixed concentration of ^3H-dihydrotestosterone (^3H-DHT) as tracer. This binding assay method is a modification of a protocol previously described (Chang, et. al. J. Steroid Biochem. 20(1):11-17 1984). Briefly, progressively decreasing concentrations of compounds are incubated in the presence of hAR extract (Chang et al. P.N.A.S. Vol. 89, pp. 5546-5950, 1992), hydroxylapatite and 1 nM ^3H-DHT for one hour at 4° C. Subsequently, the binding reactions are washed three times to completely remove excess unbound ^3H-DHT. hAR bound ^3H-DHT levels are determined in the presence of compounds (=competitive binding) and compared to levels bound when no competitor is present (=maximum binding). Compound binding affinity to the hAR is expressed as the concentration of compound at which one half of the maximum binding is inhibited (the IC50).

[2] = tested on: orchiectomized (ORX) immature male rat; assay: Orchiectomized immature rat assay (levator ani and ventral prostate weights); type: in vivo, Sprague Dawley rat; conditions: 4 days, TP 10 mg/kg = 100%, ORX control = 0%; for % TP Control LA: levator ani weight; for % TP Control VP: ventral prostate weight
Experimental: All animal studies were performed in accordance with the Guide for Care and Use of Laboratory Animals (National Research Council, 1996). Twenty-one day old male Sprague Dawley rats were acquired from Taconic, Inc, Germantown, N.Y. Rats were housed five per cage at standard vivarium conditions ([…], 12-h light/dark cycle), with normal chow diet and tap water ad libitum. At 25 days of age, the rats underwent bilateral orchiectomy surgery (ORX) after sedation with 3-5% Isoflurane. Following the surgery, the animals were treated immediately by daily subcutaneous (s.c.) injection with vehicle (sesame oil), testosterone propionate (TP, 10 mg/kg) and test compounds. The dosage of test compound administered is in mg/kg. At the end of the 4 days of administrations, the animals were sacrificed in a carbon dioxide chamber, the ventral prostate (VP) and levator ani muscle complex (LA) were removed and weighed. The increase in the weights of VP or LA by TP was expressed as 100%, and the ORX control as baseline, 0%; the response of the test compounds was calculated as the percentage increase compared to TP.

Compound | IC50 [1] [nM] | % TP Control LA ([2]; 3 mg/kg s.c.) [%] | % TP Control LA ([2]; 10 mg/kg s.c.) [%] | % TP Control LA ([2]; 30 mg/kg s.c.) [%] | % TP Control VP ([2]; 3 mg/kg s.c.) [%] | % TP Control VP ([2]; 10 mg/kg s.c.) [%] | % TP Control VP ([2]; 30 mg/kg s.c.) [%]
CC[C@@H](C)N(C)c1ccc(C#N)c(C(F)(F)F)c1 [Example 7, 4-((R)-sec-Butyl-methyl-amino)-2-trifluoromethyl-benzonitrile] | 1.09 | 40 | 65 | 89 | 23 | 24 | 39
CCCN(CCC)c1ccc(C#N)c(Cl)c1 [Example 49, 2-Chloro-4-(dipropyl-amino)-benzonitrile] | 8.33 |  |  |  |  |  | 
CCCN(CCC)c1ccc(C#N)c(C#N)c1 [Example 19, 4-Dipropylamino-phthalonitrile] | 6.44 |  |  |  |  |  | 
